Experimental data reported in patent publication US10058587B2, “Peptide composition for cancer treatment by inhibiting TRPV6 calcium channel activity” (priority 2008, dated 2018).
Entries after “also recorded” stand apart in the source; their conditions may differ. Where no end group is shown, it is not given here.

What was measured:
[1] = Physiological effects after i.v. injection into CD1 mice (blood pressure, heart rate, neurological/behavioral); type: in vivo
Description: After in vivo i.v. injection into CD1 mice, SorC13 caused a small spike (approximately 25%) in blood pressure in the first 15 min which disappeared by 1 hour.

[2] = Degradation rate in human plasma (HPLC); type: in vitro ADME
Description: Rat plasma was obtained from blood taken from sacrificed rats (Sprague-Dawley) and placed into heparinized glass vials to prevent clotting. Whole blood was centrifuged at 8000×g for 5 minutes to spin down the cells leaving the plasma as supernatant. Human whole blood samples from healthy humans were taken in lithium-heparinized vacuum tubes. The samples were placed into 2.0 mL microcentrifuge tubes and centrifuged at 8000×g for 5 min. The plasma was carefully separated from red blood cells and used immediately.
Determination of degradation rate of the C-peptides was done by measuring, with the HPLC protocol, the amount of either SorC13 or SorC27 in dosed plasma samples, after time. Sample tubes (500 uL) containing 2 uL of 2 mM Pefabloc were previously prepared for sample delivery SorC13 (1.0 mg) or SorC27 (2.0 mg) were dissolved in 1.0 mL of fresh plasma (37° C.) and placed in an incubating water bath at 37° C. A sample (100 uL) was taken immediately and quenched in sample tubes containing 2 uL of 2 mM Pefabloc, mixed vigorously and immediately frozen at −80° C. This initial sample represented time zero for the run. At successive time intervals of 5 minutes, 100 uL samples were withdrawn, quenched in Pefabloc, mixed, and frozen at −80° C. until analysis.
The rat plasma degradation rate was determined for the plasma from three different rats, while the rate of degradation in human plasma used six separate plasma samples. The data used were the means (±SEM) and were fitted to a simple one-phase exponential decay model to determine the half-life of the two peptides. This also allowed the calculation of a static degradation rate. FIG. 11 is illustrative of the rate at which SorC27 was degraded in human plasma.

[3] = Repeated dose toxicity study; type: in vivo, NOD/SCID mice
Description: In order to investigate repeated dose toxicity, SorC27 at 400 mg/kg formulated in saline was injected (i.p.) into NOD/SCID mice every day for 12 days. The animals were observed cage-side each day and examined at the end of the experimental period.

[4] = system: MDA-MB-231 (MB 231) breast cancer cell line; assay: Induction of apoptosis (APO-ONE caspase 3/7) and cell viability (CellTiter Blue); type: cell-based, human; design: key to Decline in cell viability: decreased (+); or not (−)
Description: (§1) MCF-7, MDA-MB-231, MDA-MB-415, MDA-MB-468 were grown in DMEM modified with 10% (v/v) fetal bovine serum, 2 mM L-glutamine and 50 ug/mL each of penicillin and streptomycin.
(§2) The levels of apoptotic induction and cell viability were determined by multiplexing the measurements for single samples. CellTiter Blue and APO-ONE assay systems from Promega allows the determination of cell viability correlated to cell number, and induction of apoptosis. This protocol uses a fluorgenic peptide that contains a peptide recognition-sequence for caspase 3 and caspase 7, […] proteolytic enzymes of the apoptosis cascade. The CellTiter Blue reagent was added to wells in a 96-well plate containing cells under test, immediately after addition of peptide solution or vehicle. About 5000 cells were plated into the wells the day before. At the chosen time (Day 1, Day 2 etc.) the fluorescence was measured at 590 nm (emission) after excitation at 560 nm. The caspase 3/7 activity was measured (485 nm Ex/527 nm Em) in the same wells after adding 120 uL of the Apo-ONE reagent, freeze fracturing at −80° C. for 1 hr, and incubating for 1 hr at room temperature.
(§3) For this work, the concentrations of SorC13 and SorC27 used were 0 uM, 1 uM, 10 uM and 100 uM. The experiments extended over a 5 to 7 day period. All measurements were done in quadruplicate with both a blank (no cells) and control (vehicle, no peptide) used to correct the test measurements. The time-response data, and the dose-response data were plotted as means±standard error of the mean. Any statistical comparisons were done with the Student's t-test or by ANOVA analysis over the dose course. The level of statistical significance was considered to be the 95% confidence interval (i.e., p≤0.05).

[5] = system: MDA-MB-415 (MB 415) breast cancer cell line; assay: as above; type: cell-based, human; design: key to Decline in cell viability: decreased (+); or not (−)
Description: as §1, §2, §3

Solubility (aqueous) = conditions: aqueous
[6] = system: MCF 7 breast cancer cell line; assay: Induction of apoptosis (APO-ONE caspase 3/7) and cell viability (CellTiter Blue); type: cell-based, human; design: key: decreased (+); or not (−); conditions: SorC27
Description: as §1, §2
For this work, the concentrations of SorC13 and SorC27 used were 0 uM, 1 uM, 10 uM and 100 uM. The experiments extended over a 5 to 7 day period. […]

[7] = system: CaOV3 ovarian cancer cell line; assay: as above; type: cell-based, human; design: key to Decline in cell viability: decreased (+); or not (−)
Description: CAOV-3 was cultured in Dulbecco's Modified Eagle Medium (4.5 g/L glucose) with 4 mM L-glutamine, 1.5 g/L sodium bicarbonate and 10% (v/v) fetal bovine serum.
as §2, §3
To compare the effect of the two SorC-peptides against the gold-standard treatment for ovarian cancers SorC13 or SorC27 was compared to treatment with a carboplatin and taxol (CAT) cocktail (10 uM Paclitaxel, 20 mM carboplatin) using the APO-ONE assay, which measures the combined activities of caspase 3 and caspase 7. […]

[8] = system: MDA-MB-468 (MB 468) breast cancer cell line; assay: as above; type: cell-based, human; design: key: cell viability decreased (+); or not (−)
Description: as §1, §2, §3

[9] = 400 mg/kg, daily i.p. injection for 12 days

**Q.** With EGKLSSNDTEGGLCKEFLHPSKVDLPR [SorC27] as the sequence, how does the “Physiol. effects in vivo (mice) @ 5 mg/kg” value ([1]; 5 mg/kg) read?
**A.** None observed over 72 hr

**Q.** What about the “change in blood pressure or heart rate” value ([1]; i.v., 1 hour measurement period) of the same sequence?
**A.** no change in blood pressure or heart rate

**Q.** What about the neurological/behavioral changes ([1]; i.v., over 72 hours) of the same sequence?
**A.** no also neurological/behavioral changes

**Q.** And the “binding to plasma proteins” value ([2]; human plasma)?
**A.** doesn't bind to

**Q.** And the half-life ([2]; human, plasma, 37° C.)?
**A.** 20 min

**Q.** What about the “toxicity of multiple dose” value ([3]; 400 mg/kg i.p. each day for 12 days) of the same sequence?
**A.** no indication of toxicity; also recorded: no toxic effect, weight loss or change in organs on necropsy

**Q.** What about the “Repeated dose in NOD/SCID mice: body weight” value [3, 9] of the same sequence?
**A.** No loss of body weight

**Q.** What about the “Repeated dose in NOD/SCID mice: toxic effects” value [3, 9] of the same sequence?
**A.** no toxic effects noted

**Q.** What about the “Apoptosis Index (1 = no effect)” value ([4]; Day 3, SorC27 10 μM) of the same sequence?
**A.** 1.5

**Q.** What about the “Apoptosis Index (1 = no effect)” value ([4]; Day 3, SorC27 100 μM) of the same sequence?
**A.** 1.7

**Q.** And the “Decline in cell viability” value ([4]; SorC27)?
**A.** +

**Q.** And the “Decline in cell viability” value ([5]; SorC27)?
**A.** +

**Q.** And the “Apoptosis Index (1 = no effect)” value ([5]; SorC27 10 μM)?
**A.** 1.3

**Q.** And the “Apoptosis Index (1 = no effect)” value ([5]; SorC27 100 μM)?
**A.** 1.5

**Q.** And the solubility (Solubility (aqueous))?
**A.** > 200 mg/mL

**Q.** What about the “Decline in cell viability” value [6] of the same sequence?
**A.** +

**Q.** Which “apoptosis (treatment:control ratio) compared with CAT cocktail” value ([7]; CAT = 10 uM Paclitaxel, 20 mM carboplatin) does the source give for KEFLHPSKVDLPR [SorC13, KEFLHPSKVDLPR] here?
**A.** produced earlier and more intense apoptosis cascade than the CAT cocktail

**Q.** And the “Apoptosis Index (1 = no effect)” value ([7]; Day5, SorC13 100 uM)?
**A.** 2.7

**Q.** What about the “Decline in cell viability” value ([7]; Day5, SorC13 100 uM) of the same sequence?
**A.** +

**Q.** And the “Decline in cell viability” value ([8]; SorC13 1 uM)?
**A.** +

**Q.** What about the “Decline in cell viability” value ([8]; SorC13 10 uM) of the same sequence?
**A.** +

**Q.** And the “Decline in cell viability” value ([8]; SorC13 100 uM)?
**A.** +
